According to patent US7998681B2, “Diagnosis and therapy of antibody-mediated inflammatory auto-immune disorders” (Los Angeles Biomedical Research Institute at Harbor-UCLA …, priority 2000, dated 2011):

Experiments:
[1] = test system: TAO fibroblasts; experiment: PGE2 synthesis in TAO fibroblasts; type: cell-based, human; details: FIG. 7A
Experimental: FIGS. 7A and 7B show the up-regulation of PGE2 synthesis and blockage with SC58125 (a PGHS-2 inhibitor) and dexamethasone (7A) and PGHS-2 expression (7B) in TAO fibroblasts.
Referring to FIGS. 7A and 7B, CD40 ligation in orbital fibroblasts results in the induction of PGHS-2 and leads to the over-production of PGE2. […] CD40 ligation in these cultures results in the intermediate activation of IL-1α gene expression. This induction occurs after 6 h of treatment and is mediated at the pre-translational level. IL-1β is undetectable in orbital fibroblasts and is not induced by CD154. Interrupting the expression, receptor binding or activity of IL-1α attenuates the induction of PGHS-2 provoked by CD40 ligation. It is notable that CD40 is over-expressed by thyroid epithelium in Graves' disease and provokes constitutive PGHS-2 expression. Moreover, functional CD40 is expressed by human thyroid fibroblasts.

[2] = test system: orbital fibroblasts; experiment: Differentiation of orbital fibroblasts into adipocytes; type: cell-based, human; details: parent strain, transient exposure; flow analysis
From the text: FIGS. 13A-13D show induction of differentiation of Thy-1^− orbital fibroblasts into adipocytes by the […] ligand rosiglitazone. A control phase contrast of parental strain (B) flow cytometric analysis of parental strain showing absence of adipocytes (C) phase contrast post-differentiation showing adipocyte clusters (D) flow analysis showing 44% adipocyte differentiated.
An under-appreciated feature of the tissue remodeling associated with TAO is the expansion of the fat deposit. In fact, a number of surgical therapeutic strategies are aimed directly at reducing the mass of fat in TAO. These have been variably successful in reducing the mechanical embarrassment imposed by excessive fat volumes in TAO. […] While only a small fraction of orbital fibroblasts undergo differentiation into mature adipocytes, the fraction is invariant with regard to whether the fibroblasts were from a patient with TAO or from normal orbital tissues. While this discovery was of substantial interest to us, we realized that the differentiation of such a small fraction of cells might preclude determining the phenotypic changes accompanying them. However, referring to FIGS. 12A-12D, transient exposure to the PPARγ ligand (rosiglitazone) 45 to 65% of the cells in a parent strain matured to adipocytes showing that orbital fibroblasts express abundant PPARγ. […]

[3] = test system: IL-16; experiment: IL-16 ELISA of medium from treated fibroblasts, GD donors; type: cell-based, human; details: TAO orbital fibroblasts; IGF-1 10 nM, TSH high concentrations
From the text: (§1) In addition to its therapeutic aspects, the present invention also relates to a diagnostic method for detecting the presence of antibody-activated fibroblasts in the patient. Applicants believe that several auto immune diseases or disorders are associated with antibody-activated fibroblasts. […] Altered levels of these chemoattractants can be detected in various biological samples in mammals, preferably humans. Levels of IL-16 and/or RANTES may be monitored in a patient, using standard techniques, as an indication of the deleterious aspects of the disease condition. Biological samples, including but not limited to serum, vitreous humor, aqueous humor, synovial fluid, and tissue, will be drawn from the patient using standard techniques. Particularly preferred are serum samples. The measurement of the IL-16 and RANTES levels may be monitored using any method possible to detect the levels of these proteins in biological samples. A preferred method of analysis is by ELISA as described in Sciaky, D. et al., J. Immunol. 164(7):3806-14, 2000. An ELISA specific for IL-16 can be used to assess the levels released by fibroblasts as described previously in Lim, K. G. et al., J. Immunol. 156(7): 2566-70, 1996. An ELISA specific for RANTES can be used according to the manufacturer's specification (BioSource Intl., Camarillo, Calif.).
(§2) The levels of IL-16 and RANTES were then assessed with specific ELISAs. The ELISA assay for IL-16 is performed essentially as discussed in Sciaky D., Brazer, W., Center, D. M., Cruikshank, W. W. and Smith, T. J.: Cultured human fibroblasts express constitutive IL-16 mRNA: Cytokine induction of active IL-16 protein synthesis through a caspase-3-dependent mechanism. J. Immunol. 164(7):3806-14, 2000). An ELISA (BioSource) for RANTES was performed according to the manufacturer's instructions.

[4] = test system: RANTES; experiment: RANTES ELISA of medium from treated fibroblasts, GD donors; type: cell-based, human; details: TAO orbital fibroblasts; IGF-1 10 nM, TSH high concentrations
From the text: as §1, §2

[5] = test system: IL-16 and RANTES; experiment: Expression of IL-16 and RANTES (FIG. 4); type: cell-based
From the text: Referring to FIG. 5, these findings on the role of IL-16 and RANTES in the fibroblast/lymphocyte inflammation cascade provide options for therapies for TAO, RA and other antibody-mediated inflammatory auto-immune disorders. The method of the therapeutic aspect of the invention involves inhibiting the activity of the two chemoattractant molecules that are substantial contributors to the inflammation cascade, IL-16 and RANTES. IL-16 inhibitors include, but are not limited to, rapamycin, wortmannin, caspase-3 inhibitor, and anti-IL-16 antibody. RANTES inhibitors include, but are not limited to, SB203580, and anti-RANTES antibody. […] These compounds either block translation of the chemoattractant molecules, prevent release of chemoattractant molecules from the cell after they are translated, or neutralize the chemoattractant molecules' ability to cause lymphocytic chemotaxis after they are released.

[6] = test system: orbital fibroblasts; experiment: IL-6 and IL-8 synthesis in orbital fibroblasts on CD40 ligation; type: cell-based, human; details: orbital fibroblasts treated with rCD154
From the text: These include IL-6 and IL-8, two important molecules critical to the activation and trafficking of bone marrow derived cells to sites of inflammation and which have been implicated in Graves' disease. […] Nuclear translocation of NF-κB is provoked by CD40 ligation and inhibiting the activation of this transcriptional factor by stabilizing the NF-κB/IκB complex can block the induction of both IL-6 and IL-8.

CS(=O)(=O)c1ccc(-n2nc(C(F)(F)F)cc2-c2ccc(F)cc2)cc1 [SC58125] was tested, and the “effect on up-regulation of PGE2 synthesis” value [1] was “blockage”.

For CN(CCOc1ccc(CC2SC(=O)NC2=O)cc1)c1ccccn1 (stereo not shown) [rosiglitazone], the “cells matured (differentiated) to adipocytes” value [2] was 44%.

“IGF-1: authentic IGF-1, ligand of the IGF-1 receptor” was tested, and the “induction of IL-16 expression by the substance itself” value [3] was “mimicked” and the “induction of RANTES expression by the substance itself” value [4] was “mimicked”.

With C[S+]([O-])c1ccc(-c2nc(-c3ccncc3)c(-c3ccc(F)cc3)[nH]2)cc1 (stereo not shown) [SB203580] the “effect on IL-16 and RANTES expression” value [5] was “inhibition of expression”.

In the case of COc1cccc(-c2cc(=O)c3ccccc3o2)c1N [PD098059], the “effect on IL-16 and RANTES expression” value [5] is reported as “inhibition of expression”.

B1: rCD154: recombinant CD40 ligand, member of the TNF-α superfamily (protein, UniProt P29965 113-261, looked up)
CD40 ligand, soluble form: MQKGDQNPQIAAHVISEASSKTTSVLQWAEKGYYTMSNNLVTLENGKQLTVKRQGLYYIYAQVTFCSNREASSQAPFIASLCLKSPGRFERILLRAANTHSSAKPCGQQSIHLGGVFELQPGASVFVNVTDPSQVSHGTGFTSFGLLKL
With B1 the “synthesis of both IL-6 and IL-8” value [6] was “dramatically increased”.
